Laboratory results taken from patent US11224601B1, “Compounds that inhibits MCL-1 protein” (priority 2017, dated 2022).
pIC50: −log10 of the molar value.

What follows are molecules tested on OPM-2 human multiple myeloma cell line (assay: Cell Viability Assay (OPM-2 10 FBS), CellTiter-Glo). Settings: Homo sapiens, OPM-2, 16 h, read-out: OPM-2 10% FBS IC50 IP (μM), OPM-2 cells, 10% FBS, 16 h, CellTiter-Glo.
Format: cell-based
Description: Cell Viability Assay (OPM-2 10 FBS)
The human multiple myeloma cell line, OPM-2, was cultured in complete growth medium containing RPMI 1640 and 10% fetal bovine serum (FBS). Cells were seeded into 384-well plates at 3000 cells/well density in complete growth medium containing 10% FBS, and incubated for 16 h with serially diluted test compounds in a 37° C. incubator with 5% CO2. Cell viability was tested using CellTiter-Glo® assay (Promega, Madison, Wis.) according to the manufacturer recommendations. Luminescence was determined using an EnVision® Multilabel plate reader 25 min after the addition of detection reagent. IC50 values were then calculated with Xlfit using a logistical 4-parameter fit model in GraphPad Prism (GraphPad Software, San Diego, Calif.) or in Genedata Screener® (Genedata, Basel, Switzerland).

Going from `CO[C@]1(CN2CCN(C(C)C)[C@H](C)C2)/C=C/C[C@H](C)[C@@H](C)S(=O)(=O)NC(=O)c2ccc3c(c2)N(C[C@@H]2CC[C@H]21)C[C@@]1(CCCc2cc(Cl)ccc21)CO3` [Example 8, (1S,3′R,6′R,7′R,8′E,11′S,12′R)-6-chloro-7′-methoxy-11′,12′-dimethyl-7′-(((3R)-3-methyl-4-(1-methylethyl)-1-piperazinyl)methyl)-3,4-dihydro-2H,15′H-spiro[naphthalene-1,22′-[20]oxa[13]thia[1,14]diazatetracyclo[14.7.2.0˜3,6˜.0˜19,24˜]pentacosa[8,16,18,24]tetraen]-15′-one 13′,13′-dioxide] to `CO[C@@]1(CN2CCCN(C(C)C)CC2)/C=C/C[C@H](C)[C@@H](C)S(=O)(=O)NC(=O)c2ccc3c(c2)N(C[C@@H]2CC[C@H]21)C[C@@]1(CCCc2cc(Cl)ccc21)CO3` (stereo in doubt) [Example 331], the IC50 rises from 0.025 µM to 0.23 µM (9.2-fold). The first is the more potent here.

`CO[C@@]1(CN2CCN3CCN(C(=O)CCS(=O)(=O)c4ccccc4)C[C@H]3C2)/C=C/C[C@H](C)[C@@H](C)S(=O)(=O)NC(=O)c2ccc3c(c2)N(C[C@@H]2CC[C@H]21)C[C@@]1(CCCc2cc(Cl)ccc21)CO3` (single isomer, unassigned) [Example 295] and `C=CC(=O)N1CCN2CCN(C[C@]3(OC)/C=C/C[C@H](C)[C@@H](C)S(=O)(=O)NC(=O)c4ccc5c(c4)N(C[C@@H]4CC[C@H]43)C[C@@]3(CCCc4cc(Cl)ccc43)CO5)C[C@H]2C1` (stereo in doubt) [Example 234] are within 1.5-fold of each other in IC50: 0.104 µM for the first, 0.071 µM for the second.

`CO[C@@]1(CN2CCN3CCC(F)(F)C[C@@H]3C2)/C=C/C[C@H](C)[C@@H](C)S(=O)(=O)NC(=O)c2ccc3c(c2)N(C[C@@H]2CC[C@H]21)C[C@@]1(CCCc2cc(Cl)ccc21)CO3` (single isomer, unassigned) [Example 288] and `CO[C@]1(CN2CCN3CCC(F)(F)C[C@H]3C2)/C=C/C[C@H](C)[C@@H](C)S(=O)(=O)NC(=O)c2ccc3c(c2)N(C[C@@H]2CC[C@H]21)C[C@@]1(CCCc2cc(Cl)ccc21)CO3` (single isomer, unassigned) [Example 299] are within 1.5-fold of each other in IC50: 0.652 µM for the first, 0.456 µM for the second.

`CO[C@]1(CN2CCN3CCN(S(C)(=O)=O)C[C@@H]3C2)/C=C/C[C@H](C)[C@@H](C)S(=O)(=O)NC(=O)c2ccc3c(c2)N(C[C@@H]2CC[C@H]21)C[C@@]1(CCCc2cc(Cl)ccc21)CO3` (stereo in doubt) [Example 227] and `CO[C@@]1(CN2CCN3CCN(C)C[C@@H]3C2)/C=C/C[C@H](C)[C@@H](C)S(=O)(=O)NC(=O)c2ccc3c(c2)N(C[C@@H]2CC[C@H]21)C[C@@]1(CCCc2cc(Cl)ccc21)CO3` (stereo in doubt) [Example 210] are within 1.5-fold of each other in IC50: 0.131 µM for the first, 0.185 µM for the second.

First: CO[C@@]1(CN2CCN([C@@H]3CCOC3)CC2)/C=C/C[C@H](C)[C@@H](C)S(=O)(=O)NC(=O)c2ccc3c(c2)N(C[C@@H]2CC[C@H]21)C[C@@]1(CCCc2cc(Cl)ccc21)CO3 (single isomer, unassigned) [Example 286]
Second: CO[C@]1(CN2CCN3CCC[C@@H]3C2)/C=C/C[C@H](C)[C@@H](C)S(=O)(=O)NC(=O)c2ccc3c(c2)N(C[C@@H]2CC[C@H]21)C[C@@]1(CCCc2cc(Cl)ccc21)CO3 [Example 83]
The IC50 of the first is 4.9-fold lower: 0.05 µM for the first, 0.245 µM for the second.

Compared with `CCCO[C@]1(CN2CCN3CCCC[C@@H]3C2)/C=C/C[C@H](C)[C@@H](C)S(=O)(=O)NC(=O)c2ccc3c(c2)N(C[C@@H]2CC[C@H]21)C[C@@]1(CCCc2cc(Cl)ccc21)CO3` [Example 353, (1S,3′R,6′R,7′R,8′E,11′S,12′R)-6-chloro-11′,12′-dimethyl-7′-((9aR)-octahydro-2H-pyrido[1,2-a]pyrazin-2-ylmethyl)-7′-propoxy-3,4-dihydro-2H,15′H-spiro[naphthalene-1,22′-[20]oxa[13]thia[1,14]diazatetracyclo [14.7.2.0~3,6~.0~19,24~]pentacosa[8,16,18,24]tetraen]-15′-one 13′,13′-dioxide], `CO[C@]1(CN2CCN3CCCC[C@@H]3C2)/C=C/C[C@H](C)[C@@H](C)S(=O)(=O)NC(=O)c2ccc3c(c2)N(C[C@@H]2CC[C@H]21)C[C@@]1(CCCc2cc(Cl)ccc21)CO3` [Example 10, (1S,3′R,6′R,7′R,8′E,11′S,12′R)-6-chloro-7′-methoxy-11′,12′-dimethyl-7′-((9aR)-octahydro-2H-pyrido[1,2-a]pyrazin-2-ylmethyl)-3,4-dihydro-2H,15′H-spiro[naphthalene-1,22′-[20]oxa[13]thia[1,14]diazatetracyclo [14.7.2.0˜3,6˜.0˜19,24˜]pentacosa[8,16,18,24]tetraen]-15′-one 13′,13′-dioxide] is 2.5-fold lower in IC50: 0.186 µM for the first, 0.075 µM for the second.

`CO[C@]1(CN2CC[C@H]3CCCC[C@@H]3C2)/C=C/C[C@H](C)[C@@H](C)S(=O)(=O)NC(=O)c2ccc3c(c2)N(C[C@@H]2CC[C@H]21)C[C@@]1(CCCc2cc(Cl)ccc21)CO3` (stereo in doubt) [Example 86] and `CO[C@]1(CN2CC[C@@H]3CCCC[C@H]3C2)/C=C/C[C@H](C)[C@@H](C)S(=O)(=O)NC(=O)c2ccc3c(c2)N(C[C@@H]2CC[C@H]21)C[C@@]1(CCCc2cc(Cl)ccc21)CO3` (single isomer, unassigned) [Example 90] are within 1.5-fold of each other in IC50: 7.95 µM for the first, 8.98 µM for the second.

Compared with `C[C@@H]1[C@@H](C)C/C=C/[C@]2(CN3CCN(C)C[C@@H]3CO2)[C@@H]2CC[C@H]2CN2C[C@@]3(CCCc4cc(Cl)ccc43)COc3ccc(cc32)C(=O)NS1(=O)=O` (single isomer, unassigned) [Example 132], `CO[C@@]1(CN2CCN3CCC(F)(F)CC3C2)/C=C/C[C@H](C)[C@@H](C)S(=O)(=O)NC(=O)c2ccc3c(c2)N(C[C@@H]2CC[C@H]21)C[C@@]1(CCCc2cc(Cl)ccc21)CO3` (mixture of isomers) [Example 273] is 1.9-fold higher in IC50: 0.263 µM for the first, 0.501 µM for the second.

Going from `CO[C@]1(CN2CCN3CCN(S(C)(=O)=O)C[C@@H]3C2)/C=C/C[C@H](C)[C@@H](C)S(=O)(=O)NC(=O)c2ccc3c(c2)N(C[C@@H]2CC[C@H]21)C[C@@]1(CCCc2cc(Cl)ccc21)CO3` (single isomer, unassigned) [Example 237] to `CO[C@]1(CN2CCN3CCC(F)(F)C[C@@H]3C2)/C=C/C[C@H](C)[C@@H](C)S(=O)(=O)NC(=O)c2ccc3c(c2)N(C[C@@H]2CC[C@H]21)C[C@@]1(CCCc2cc(Cl)ccc21)CO3` (stereo in doubt) [Example 292], the IC50 rises from 0.064 µM to 0.399 µM (6.2-fold). The first is the more potent here.

Compared with `C[C@@H]1[C@@H](C)CCC[C@@](O)(CN2CCN3CCOC[C@@H]3C2)[C@@H]2CC[C@H]2CN2C[C@@]3(CCCc4cc(Cl)ccc43)COc3ccc(cc32)C(=O)NS1(=O)=O` [Example 7, (1S,3′R,6′R,7′S,11′S,12′R)-6-chloro-7′-((9aS)-hexahydropyrazino[2,1-c][1,4]oxazin-8(1H)-ylmethyl)-7′-hydroxy-11′,12′-dimethyl-3,4-dihydro-2H,15′H-spiro[naphthalene-1,22′-[20]oxa[13]thia[1,14]diazatetracyclo[14.7.2.0˜3,6˜.0˜19,24˜]pentacosa[16,18,24]trien]-15′-one 13′,13′-dioxide], `CO[C@@]1(CN2CCN3CCC(F)(F)C[C@H]3C2)/C=C/C[C@H](C)[C@@H](C)S(=O)(=O)NC(=O)c2ccc3c(c2)N(C[C@@H]2CC[C@H]21)C[C@@]1(CCCc2cc(Cl)ccc21)CO3` (single isomer, unassigned) [Example 289] is 5.2-fold higher in IC50: 0.025 µM for the first, 0.131 µM for the second.

Same assay, conditions: read-out: OPM-2 10% FBS IC50 IP; OPM-2 cells, 10% FBS, 16 h, CellTiter-Glo

Going from `CO[C@@]1(CN2CCN3CCN(C(=O)CCS(=O)(=O)c4ccccc4)C[C@@H]3C2)/C=C/C[C@H](C)[C@@H](C)S(=O)(=O)NC(=O)c2ccc3c(c2)N(C[C@@H]2CC[C@H]21)C[C@@]1(CCCc2cc(Cl)ccc21)CO3` (stereo in doubt) [Example 233] to `CO[C@]1(CN2CCN3CCN(S(C)(=O)=O)C[C@@H]3C2)/C=C/C[C@H](C)[C@@H](C)S(=O)(=O)NC(=O)c2ccc3c(c2)N(C[C@@H]2CC[C@H]21)C[C@@]1(CCCc2cc(Cl)ccc21)CO3` (single isomer, unassigned) [Example 238], the pIC50 rises from 6.69 to 7.12 (0.43 log units).

Going from `CO[C@@]1(CN2CCN3CCS(=O)(=O)C[C@@H]3C2)/C=C/C[C@H](C)[C@@H](C)S(=O)(=O)NC(=O)c2ccc3c(c2)N(C[C@@H]2CC[C@H]21)C[C@@]1(CCCc2cc(Cl)ccc21)CO3` (single isomer, unassigned) [Example 232] to `CO[C@]1(CN2CCN3CCS(=O)(=O)C[C@@H]3C2)/C=C/C[C@H](C)[C@@H](C)S(=O)(=O)NC(=O)c2ccc3c(c2)N(C[C@@H]2CC[C@H]21)C[C@@]1(CCCc2cc(Cl)ccc21)CO3` (single isomer, unassigned) [Example 221], the pIC50 rises from 6.70 to 6.92 (0.22 log units).

Compared with `CO[C@@]1(CN2CCN3CCS(=O)(=O)C[C@@H]3C2)/C=C/C[C@H](C)[C@@H](C)S(=O)(=O)NC(=O)c2ccc3c(c2)N(C[C@@H]2CC[C@H]21)C[C@@]1(CCCc2cc(Cl)ccc21)CO3` (single isomer, unassigned) [Example 231], `CO[C@]1(CN2CCN3CCS(=O)(=O)C[C@@H]3C2)/C=C/C[C@H](C)[C@@H](C)S(=O)(=O)NC(=O)c2ccc3c(c2)N(C[C@@H]2CC[C@H]21)C[C@@]1(CCCc2cc(Cl)ccc21)CO3` (single isomer, unassigned) [Example 220] is 0.37 log units higher in pIC50: 7.01 for the first, 7.38 for the second.

First: CO[C@@]1(CN2CCN3CCN(C(=O)CCS(=O)(=O)c4ccccc4)C[C@@H]3C2)/C=C/C[C@H](C)[C@@H](C)S(=O)(=O)NC(=O)c2ccc3c(c2)N(C[C@@H]2CC[C@H]21)C[C@@]1(CCCc2cc(Cl)ccc21)CO3 (single isomer, unassigned) [Example 294]
Second: CO[C@]1(CN2CC[C@H]3CCCC[C@@H]3C2)/C=C/C[C@H](C)[C@@H](C)S(=O)(=O)NC(=O)c2ccc3c(c2)N(C[C@@H]2CC[C@H]21)C[C@@]1(CCCc2cc(Cl)ccc21)CO3 (single isomer, unassigned) [Example 89]
The pIC50 of the first is 1.07 log units higher: 6.16 for the first, 5.09 for the second.
